What was measured:
Test in all cases: biochemical
MSK1 = target: T1, MSK1 (Homo sapiens, UniProt O75582); parameters: Dundee MRC-PPU Express kinase screen, remaining kinase activity; details: read-out: Mean % of remaining kinase activity (±sd)
T1 construct: gene RPS6KA5

PKD1 = target: T2, PKD1 (Homo sapiens, UniProt Q15139); parameters: Dundee MRC-PPU Express kinase screen, remaining kinase activity; details: read-out: Mean % of remaining kinase activity (±sd)
T2 construct: gene PRKD1

SmMLCK = target: T3, SmMLCK (Homo sapiens, UniProt Q15746); parameters: Dundee MRC-PPU Express kinase screen, remaining kinase activity; details: read-out: Mean % of remaining kinase activity (±sd)
T3 construct: gene MYLK; smooth muscle

SRPK1 = SRPK1 (Homo sapiens, UniProt Q96SB4); parameters: Dundee MRC-PPU Express kinase screen, remaining kinase activity; details: read-out: Mean % of remaining kinase activity (±sd)
PRK2 = target: T4, PRK2 (Homo sapiens, UniProt Q16513); parameters: Dundee MRC-PPU Express kinase screen, remaining kinase activity; details: read-out: Mean % of remaining kinase activity (±sd)
T4 construct: gene PKN2

S6K1 = target: T5, S6K1 (Homo sapiens, UniProt P23443); parameters: Dundee MRC-PPU Express kinase screen, remaining kinase activity; details: read-out: Mean % of remaining kinase activity (±sd)
T5 construct: gene RPS6KB1

BTK = BTK (Homo sapiens, UniProt Q06187); parameters: Dundee MRC-PPU Express kinase screen, remaining kinase activity; details: read-out: Mean % of remaining kinase activity (±sd)
Lck = Lck (Homo sapiens, UniProt P06239); parameters: Dundee MRC-PPU Express kinase screen, remaining kinase activity; details: read-out: Mean % of remaining kinase activity (±sd)
Sequence of Lck (P06239 whole entry): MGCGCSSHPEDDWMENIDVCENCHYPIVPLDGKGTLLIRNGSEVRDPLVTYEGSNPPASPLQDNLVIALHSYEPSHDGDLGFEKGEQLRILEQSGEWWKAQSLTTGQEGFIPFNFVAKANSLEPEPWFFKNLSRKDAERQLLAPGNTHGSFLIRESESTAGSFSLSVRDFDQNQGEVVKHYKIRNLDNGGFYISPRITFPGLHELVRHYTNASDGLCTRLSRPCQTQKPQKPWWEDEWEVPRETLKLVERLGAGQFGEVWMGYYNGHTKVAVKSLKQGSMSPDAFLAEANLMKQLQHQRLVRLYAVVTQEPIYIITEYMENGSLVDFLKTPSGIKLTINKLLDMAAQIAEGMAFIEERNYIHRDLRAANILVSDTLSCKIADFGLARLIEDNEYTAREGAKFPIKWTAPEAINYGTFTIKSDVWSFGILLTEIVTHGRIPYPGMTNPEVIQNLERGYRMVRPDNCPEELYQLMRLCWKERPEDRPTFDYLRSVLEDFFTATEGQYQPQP

NEK6 = NEK6 (Homo sapiens, UniProt Q9HC98); parameters: Dundee MRC-PPU Express kinase screen, remaining kinase activity; details: read-out: Mean % of remaining kinase activity (±sd)
LKB1 = target: T6, LKB1 (Homo sapiens, UniProt Q15831); parameters: Dundee MRC-PPU Express kinase screen, remaining kinase activity; details: read-out: Mean % of remaining kinase activity (±sd)
T6 construct: gene STK11
T6 sequence (Q15831 whole entry): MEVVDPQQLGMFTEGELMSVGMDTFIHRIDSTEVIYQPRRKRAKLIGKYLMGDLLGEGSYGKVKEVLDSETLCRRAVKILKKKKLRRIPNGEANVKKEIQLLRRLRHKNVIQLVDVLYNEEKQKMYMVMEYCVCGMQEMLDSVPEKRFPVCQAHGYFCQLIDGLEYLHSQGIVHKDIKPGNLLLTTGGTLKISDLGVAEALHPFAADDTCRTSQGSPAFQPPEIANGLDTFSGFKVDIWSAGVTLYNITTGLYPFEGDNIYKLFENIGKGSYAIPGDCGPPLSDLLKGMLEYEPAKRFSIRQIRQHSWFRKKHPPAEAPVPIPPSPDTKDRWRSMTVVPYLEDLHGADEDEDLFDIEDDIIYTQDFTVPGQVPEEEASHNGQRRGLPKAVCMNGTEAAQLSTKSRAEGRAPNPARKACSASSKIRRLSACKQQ

ROCK 2 = target: T7, ROCK 2 (Homo sapiens, UniProt O75116); parameters: Dundee MRC-PPU Express kinase screen, remaining kinase activity; details: read-out: Mean % of remaining kinase activity (±sd)
T7 construct: gene ROCK2

GSK3b = GSK3b (Homo sapiens, UniProt P49841); parameters: Dundee MRC-PPU Express kinase screen, remaining kinase activity; details: read-out: Mean % of remaining kinase activity (±sd)
Sequence of GSK3b (P49841 whole entry): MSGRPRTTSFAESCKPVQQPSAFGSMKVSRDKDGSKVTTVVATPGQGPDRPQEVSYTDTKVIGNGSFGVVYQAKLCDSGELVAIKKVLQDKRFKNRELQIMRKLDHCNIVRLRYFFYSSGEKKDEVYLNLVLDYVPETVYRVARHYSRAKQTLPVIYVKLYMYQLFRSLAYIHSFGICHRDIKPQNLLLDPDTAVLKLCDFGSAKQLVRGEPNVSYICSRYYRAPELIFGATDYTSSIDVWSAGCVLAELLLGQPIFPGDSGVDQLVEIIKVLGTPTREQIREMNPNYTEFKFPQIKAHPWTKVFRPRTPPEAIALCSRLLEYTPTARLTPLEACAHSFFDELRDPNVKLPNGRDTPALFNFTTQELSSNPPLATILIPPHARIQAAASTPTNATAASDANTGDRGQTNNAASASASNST

Aurora B = target: T8, Aurora B (Homo sapiens, UniProt Q96GD4); parameters: Dundee MRC-PPU Express kinase screen, remaining kinase activity; details: read-out: Mean % of remaining kinase activity (±sd)
T8 construct: gene AURKB
T8 sequence (Q96GD4 whole entry): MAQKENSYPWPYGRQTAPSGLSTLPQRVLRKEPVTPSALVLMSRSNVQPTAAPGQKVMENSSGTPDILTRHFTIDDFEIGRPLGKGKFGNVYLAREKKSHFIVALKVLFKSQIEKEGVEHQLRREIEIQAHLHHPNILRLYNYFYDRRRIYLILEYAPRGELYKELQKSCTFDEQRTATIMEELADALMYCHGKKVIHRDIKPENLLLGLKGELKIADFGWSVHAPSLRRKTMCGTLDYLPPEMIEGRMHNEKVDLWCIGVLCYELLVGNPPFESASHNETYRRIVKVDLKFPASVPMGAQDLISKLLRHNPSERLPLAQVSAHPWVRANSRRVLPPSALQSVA

PDK1 = target: T9, PDK1 (Homo sapiens, UniProt O15530); parameters: Dundee MRC-PPU Express kinase screen, remaining kinase activity; details: read-out: Mean % of remaining kinase activity (±sd)
T9 construct: gene PDPK1

TrkA = target: T10, TrkA (Homo sapiens, UniProt P04629); parameters: Dundee MRC-PPU Express kinase screen, remaining kinase activity; details: read-out: Mean % of remaining kinase activity (±sd)
T10 construct: gene NTRK1
T10 sequence (P04629 whole entry): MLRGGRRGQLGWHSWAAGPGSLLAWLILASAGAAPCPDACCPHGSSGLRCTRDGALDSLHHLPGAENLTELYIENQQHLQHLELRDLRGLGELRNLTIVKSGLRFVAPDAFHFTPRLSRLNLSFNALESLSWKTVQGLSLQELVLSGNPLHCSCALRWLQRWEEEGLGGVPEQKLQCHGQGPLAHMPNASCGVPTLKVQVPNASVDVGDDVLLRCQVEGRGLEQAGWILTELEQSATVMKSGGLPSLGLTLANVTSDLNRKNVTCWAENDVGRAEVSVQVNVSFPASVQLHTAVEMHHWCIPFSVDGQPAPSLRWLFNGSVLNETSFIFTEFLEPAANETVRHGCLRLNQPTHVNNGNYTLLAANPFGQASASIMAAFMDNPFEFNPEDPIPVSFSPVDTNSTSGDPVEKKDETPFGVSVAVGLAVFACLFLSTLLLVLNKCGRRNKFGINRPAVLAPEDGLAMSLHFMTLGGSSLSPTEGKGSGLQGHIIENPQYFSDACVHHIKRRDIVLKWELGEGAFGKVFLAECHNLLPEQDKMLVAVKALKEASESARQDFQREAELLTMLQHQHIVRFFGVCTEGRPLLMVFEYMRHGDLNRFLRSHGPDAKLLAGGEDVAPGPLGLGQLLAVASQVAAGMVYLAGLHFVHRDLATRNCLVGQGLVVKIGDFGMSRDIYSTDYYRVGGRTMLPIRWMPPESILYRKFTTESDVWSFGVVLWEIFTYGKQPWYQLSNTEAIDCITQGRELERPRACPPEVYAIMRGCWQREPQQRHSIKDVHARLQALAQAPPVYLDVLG

MLK3 = target: T11, MLK3 (Homo sapiens, UniProt Q16584); parameters: Dundee MRC-PPU Express kinase screen, remaining kinase activity; details: read-out: Mean % of remaining kinase activity (±sd)
T11 construct: gene MAP3K11

PKCa = target: T12, PKCa (Homo sapiens, UniProt P17252); parameters: Dundee MRC-PPU Express kinase screen, remaining kinase activity; details: read-out: Mean % of remaining kinase activity (±sd)
T12 construct: gene PRKCA

PKBa = target: T13, PKBa (Homo sapiens, UniProt P31749); parameters: Dundee MRC-PPU Express kinase screen, remaining kinase activity; details: read-out: Mean % of remaining kinase activity (±sd)
T13 construct: gene AKT1

p38a MAPK = target: T14, p38a MAPK (Homo sapiens, UniProt Q16539); parameters: Dundee MRC-PPU Express kinase screen, remaining kinase activity; details: read-out: Mean % of remaining kinase activity (±sd)
T14 construct: gene MAPK14
T14 sequence (Q16539 whole entry): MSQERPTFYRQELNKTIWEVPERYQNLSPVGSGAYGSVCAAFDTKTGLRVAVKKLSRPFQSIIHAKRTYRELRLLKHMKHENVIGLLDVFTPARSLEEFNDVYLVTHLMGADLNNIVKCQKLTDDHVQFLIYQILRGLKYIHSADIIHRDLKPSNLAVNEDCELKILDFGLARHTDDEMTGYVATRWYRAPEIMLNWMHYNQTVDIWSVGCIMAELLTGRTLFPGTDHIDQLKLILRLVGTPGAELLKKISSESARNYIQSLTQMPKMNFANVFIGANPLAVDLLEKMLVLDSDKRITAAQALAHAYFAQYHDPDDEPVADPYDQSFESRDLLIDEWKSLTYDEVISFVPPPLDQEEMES

PAK4 = PAK4 (Homo sapiens, UniProt O96013); parameters: Dundee MRC-PPU Express kinase screen, remaining kinase activity; details: read-out: Mean % of remaining kinase activity (±sd)
Sequence of PAK4 (O96013 whole entry): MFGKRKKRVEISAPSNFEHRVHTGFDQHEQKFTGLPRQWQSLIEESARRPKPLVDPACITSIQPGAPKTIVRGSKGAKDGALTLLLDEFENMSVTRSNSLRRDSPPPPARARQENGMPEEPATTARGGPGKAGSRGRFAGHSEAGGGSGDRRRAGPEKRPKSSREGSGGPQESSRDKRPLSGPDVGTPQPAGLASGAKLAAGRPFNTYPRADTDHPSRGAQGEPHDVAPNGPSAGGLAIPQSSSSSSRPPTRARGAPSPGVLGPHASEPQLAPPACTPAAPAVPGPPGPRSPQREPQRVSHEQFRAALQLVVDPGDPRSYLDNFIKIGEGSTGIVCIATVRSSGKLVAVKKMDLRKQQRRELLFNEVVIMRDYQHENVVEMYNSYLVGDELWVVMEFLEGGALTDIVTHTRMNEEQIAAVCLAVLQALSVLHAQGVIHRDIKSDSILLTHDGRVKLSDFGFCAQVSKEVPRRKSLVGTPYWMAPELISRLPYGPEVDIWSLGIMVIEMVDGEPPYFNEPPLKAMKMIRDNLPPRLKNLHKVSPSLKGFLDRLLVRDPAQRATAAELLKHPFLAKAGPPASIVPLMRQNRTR

A2A (h) = target: T15, A2A (h) (Homo sapiens, UniProt P29274); parameters: CEREP ExpresSProfile competition binding, remaining control specific binding of reference compound; details: radioligand binding; read-out: Mean % of control specific binding (±sd)
T15 construct: gene ADORA2A

CXCR2 (IL-8B) (h) = CXCR2 (IL-8B) (h) (Homo sapiens, UniProt P25025); parameters: CEREP ExpresSProfile competition binding, remaining control specific binding of reference compound; details: radioligand binding; read-out: Mean % of control specific binding (±sd)
Sequence of CXCR2 (IL-8B) (h) (P25025 whole entry): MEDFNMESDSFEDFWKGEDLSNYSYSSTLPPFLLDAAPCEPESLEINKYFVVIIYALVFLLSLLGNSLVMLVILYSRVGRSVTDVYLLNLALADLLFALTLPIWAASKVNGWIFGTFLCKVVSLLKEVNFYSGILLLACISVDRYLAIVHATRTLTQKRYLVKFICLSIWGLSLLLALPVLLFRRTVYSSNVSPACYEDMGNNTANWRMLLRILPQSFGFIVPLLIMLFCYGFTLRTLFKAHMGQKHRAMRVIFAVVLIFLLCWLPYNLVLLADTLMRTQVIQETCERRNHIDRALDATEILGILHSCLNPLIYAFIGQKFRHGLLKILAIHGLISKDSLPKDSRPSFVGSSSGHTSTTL

D2S (h) = target: T16, D2S (h) (Homo sapiens, UniProt P14416); parameters: CEREP ExpresSProfile competition binding, remaining control specific binding of reference compound; details: radioligand binding; read-out: Mean % of control specific binding (±sd)
T16 construct: gene DRD2; D2S short isoform

H1 (h) = target: T17, H1 (h) (Homo sapiens, UniProt P35367); parameters: CEREP ExpresSProfile competition binding, remaining control specific binding of reference compound; details: radioligand binding; read-out: Mean % of control specific binding (±sd)
T17 construct: gene HRH1
T17 sequence (P35367 whole entry): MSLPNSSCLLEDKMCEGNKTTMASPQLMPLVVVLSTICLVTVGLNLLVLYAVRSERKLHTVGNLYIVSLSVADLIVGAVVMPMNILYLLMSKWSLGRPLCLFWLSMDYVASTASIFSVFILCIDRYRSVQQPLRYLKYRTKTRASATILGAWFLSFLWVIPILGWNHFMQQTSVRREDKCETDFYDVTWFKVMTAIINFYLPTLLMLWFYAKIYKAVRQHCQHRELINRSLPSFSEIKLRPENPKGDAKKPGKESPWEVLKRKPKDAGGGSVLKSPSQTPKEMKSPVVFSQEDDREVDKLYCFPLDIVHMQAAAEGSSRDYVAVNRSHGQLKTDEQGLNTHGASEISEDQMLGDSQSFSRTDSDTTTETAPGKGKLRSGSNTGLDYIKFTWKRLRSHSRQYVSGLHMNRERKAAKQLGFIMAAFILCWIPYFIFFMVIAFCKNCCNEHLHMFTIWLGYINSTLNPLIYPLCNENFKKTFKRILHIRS

VPAC1 (VIP1) (h) = target: T18, VPAC1 (VIP1) (h) (Homo sapiens, UniProt P32241); parameters: CEREP ExpresSProfile competition binding, remaining control specific binding of reference compound; details: radioligand binding; read-out: Mean % of control specific binding (±sd)
T18 construct: gene VIPR1

delta (DOP) (h) = target: T19, delta (DOP) (h) (Homo sapiens, UniProt P41143); parameters: CEREP ExpresSProfile competition binding, remaining control specific binding of reference compound; details: radioligand binding; read-out: Mean % of control specific binding (±sd)
T19 construct: gene OPRD1

A1 (h) = target: T20, A1 (h) (Homo sapiens, UniProt P30542); parameters: CEREP ExpresSProfile competition binding, remaining control specific binding of reference compound; details: radioligand binding; read-out: Mean % of control specific binding (±sd)
T20 construct: gene ADORA1

In the case of `Cc1ncsc1-c1ccc(CNC(=O)[C@@H]2C[C@@H](O)CN2C(=O)[C@@H](NC(=O)C2(C#N)CC2)C(C)(C)C)cc1` [VH298], the remaining activity at 50 µM (MSK1) is reported as 87%, the remaining activity at 50 µM (PKD1) is reported as 108% and the remaining activity at 50 µM (SmMLCK) is reported as 105%. For the same molecule, the remaining activity at 50 µM (SRPK1) was 101%, the remaining activity at 50 µM (PRK2) was 110% and the remaining activity at 50 µM (S6K1) was 87%. For the same molecule, the remaining activity at 50 µM (BTK) was 102%, the remaining activity at 50 µM (Lck) was 104% and the remaining activity at 50 µM (NEK6) was 106%. The remaining activity at 50 µM (LKB1) was 105%, the remaining activity at 50 µM (ROCK 2) was 75% and the remaining activity at 50 µM (GSK3b) was 107%. For the same molecule, the remaining activity at 50 µM (Aurora B) was 78%, the remaining activity at 50 µM (PDK1) was 110% and the remaining activity at 50 µM (TrkA) was 100%. The remaining activity at 50 µM (MLK3) was 95%, the remaining activity at 50 µM (PKCa) was 99% and the remaining activity at 50 µM (PKBa) was 54%. The remaining activity at 50 µM (p38a MAPK) was 108%, the remaining activity at 50 µM (PAK4) was 97% and the remaining binding at 50 µM (A2A (h)) was 121%. For the same molecule, the remaining binding at 50 µM (CXCR2 (IL-8B) (h)) was 102%, the remaining binding at 50 µM (D2S (h)) was 91% and the remaining binding at 50 µM (H1 (h)) was 101%. The remaining binding at 50 µM (VPAC1 (VIP1) (h)) was 85%, the remaining binding at 50 µM (delta (DOP) (h)) was 65% and the remaining binding at 50 µM (A1 (h)) was 90%.
